Measurements taken from patent US12522597B2, “Methods and compositions for modulating splicing” (Skyhawk Therapeutics, Inc., priority 2019, dated 2026).

Columns and labels:
mHTT protein = mHTT protein assay (2B7-MW1, Mesoscale Discovery); format: cell-based, human; conditions: GM04724 (CAG 70/20) Huntington's disease patient lymphoblast cells, 48 hours, 2B7-MW1 MSD; read-out: HTT Potency - Protein EC50 mHTT (average)
Summary of the method: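 GM04724 Huntington's patient lymphoblasts (CAG 70/20) were treated for 48 h at 10 μM to 0.6 nM. mHTT was quantified by 2B7-MW1 MSD immunoassay, whose signal depends on polyQ expansion and HTT fragment size. Viability was run on a parallel plate by CellTiter-Glo.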

MDR1 = experiment: MDCK-MDR1 permeability assay (BBB penetration potential); format: in vitro ADME; conditions: dog; for efflux ratio at 120 min, 5 μM: MDCK-MDR1, pH 7.4, MDCK-MDR1: Efflux; for Papp A→B at 120 min, 5 μM: MDCK-MDR1, pH 7.4, MDCK-MDR1: Papp A-B; for Papp B→A at 120 min, 5 μM: MDCK-MDR1, pH 7.4, MDCK-MDR1: Papp B-A
Protocol: (§1) Each determination is performed in duplicate. […] Analytical conditions are outlined below.

[1] = test system: MDR1-MDCK cell monolayers; experiment: as above; format: in vitro ADME; conditions: dog, MDCK-MDR1, 120 min, 5 μM, pH 7.4
Protocol: as §1

SMILES | EC50 (mHTT protein) | efflux ratio at 120 min, 5 μM (MDR1) | Papp A→B at 120 min, 5 μM (MDR1) | Papp B→A at 120 min, 5 μM (MDR1) | MDCK-MDR1: % Recov A-B [1] | MDCK-MDR1: % Recov B-A [1]
Oc1cc(-c2ccc3nccn3c2)ccc1-c1ccc(O[C@H]2C[C@@H]3CCC[C@@H](N3)[C@H]2F)nn1 (single isomer, unassigned) [84-ENT2] | 16 to 50 nM | 14 | 1.63 ×10⁻⁶ cm/s | 22.8 ×10⁻⁶ cm/s | 43% | 73%
Oc1cc2nccnc2cc1-c1ccc(O[C@H]2C[C@@H]3CCC[C@@H](N3)[C@H]2F)nn1 (single isomer, unassigned) [104-ENT2] | 501 to 10000 nM | 5 | 10.1 ×10⁻⁶ cm/s | 53.6 ×10⁻⁶ cm/s | 93% | 99%
Cn1cc(-c2ccc(-c3ccc(O[C@H]4C[C@H]5CCC[C@H](N5)[C@H]4F)nn3)c(O)c2)cn1 (single isomer, unassigned) [122-ENT1] | 501 to 10000 nM | 5 | 4.73 ×10⁻⁶ cm/s | 23.3 ×10⁻⁶ cm/s | 50% | 66%
Oc1cc2ncccc2cc1-c1ccc(O[C@@H]2C[C@H]3CCC[C@H](N3)[C@@H]2F)nn1 (single isomer, unassigned) [103-ENT1] | 501 to 10000 nM | 16 | 3.92 ×10⁻⁶ cm/s | 61.5 ×10⁻⁶ cm/s | 95% | 101%
Cc1ccc(-c2ccc(-c3ccc(O[C@H]4C[C@@H]5CCC[C@@H](N5)[C@H]4F)nn3)c(O)c2)cn1 (single isomer, unassigned) [67-ENT2] | 101 to 500 nM | 6 | 3.34 ×10⁻⁶ cm/s | 20.7 ×10⁻⁶ cm/s | 59% | 76%
Oc1cc(-c2ccnnc2)ccc1-c1ccc(O[C@H]2C[C@@H]3CCC[C@@H](N3)[C@H]2F)nn1 (single isomer, unassigned) [87-ENT2] | 101 to 500 nM | 14 | 3.9 ×10⁻⁶ cm/s | 56.1 ×10⁻⁶ cm/s | 105% | 108%
Oc1cc(-c2nncs2)ccc1-c1ccc(O[C@H]2C[C@@H]3CC[C@@H](N3)[C@H]2F)nn1 (single isomer, unassigned) [141-ENT1] | 101 to 500 nM | 6 | 9.97 ×10⁻⁶ cm/s | 59.7 ×10⁻⁶ cm/s | 111% | 120%
CN(C)C(=O)c1cc2cc(O)c(-c3ccc(O[C@H]4C[C@]5(C)CCC[C@@](C)(N5)[C@H]4F)nn3)cc2o1 (single isomer, unassigned) [155-ENT2] | 501 to 10000 nM | 17 | 3.84 ×10⁻⁶ cm/s | 63.7 ×10⁻⁶ cm/s | 102% | 102%
Oc1cc2cnccc2cc1-c1ccc(O[C@@H]2C[C@H]3CCC[C@H](N3)[C@@H]2F)nn1 (single isomer, unassigned) [80-ENT1] | 101 to 500 nM | 4 | 7.47 ×10⁻⁶ cm/s | 31.4 ×10⁻⁶ cm/s | 70% | 78%
C[C@]12CC[C@](C)(N1)[C@H](F)[C@H](Oc1ccc(-c3ccc(-n4cccn4)cc3O)nn1)C2 (single isomer, unassigned) [153-ENT1] | 51 to 100 nM | 5 | 7.44 ×10⁻⁶ cm/s | 34.4 ×10⁻⁶ cm/s | 67% | 76%
Cc1cc(-c2ccc(-c3ccc(O[C@H]4C[C@@H]5CCC[C@@H](N5)[C@H]4F)nn3)c(O)c2)cs1 (single isomer, unassigned) [101-ENT2] | 16 to 50 nM | 1 | 0.92 ×10⁻⁶ cm/s | 0.55 ×10⁻⁶ cm/s | 20% | 53%
Cn1cc(-c2ccc(-c3ccc(O[C@@H]4C[C@H]5CCC[C@H](N5)[C@@H]4F)nn3)c(O)c2)c(F)n1 (single isomer, unassigned) [109-ENT1] | 16 to 50 nM | 3 | 5.54 ×10⁻⁶ cm/s | 18.9 ×10⁻⁶ cm/s | 57% | 76%
Cc1cc(-c2ccc(-c3ccc(O[C@@H]4C[C@H]5CCC[C@H](N5)[C@@H]4F)nn3)c(O)c2)co1 (single isomer, unassigned) [98-ENT1] | 101 to 500 nM | 1 | 1.13 ×10⁻⁶ cm/s | 1.39 ×10⁻⁶ cm/s | 9% | 47%
Cc1cnc(-c2ccc(-c3ccc(O[C@@H]4C[C@H]5CCC[C@H](N5)[C@@H]4F)nn3)c(O)c2)cn1 (single isomer, unassigned) [78-ENT1] | 101 to 500 nM | 3 | 7.17 ×10⁻⁶ cm/s | 24.5 ×10⁻⁶ cm/s | 65% | 78%
Oc1cc(-c2ccnnc2)ccc1-c1ccc(O[C@@H]2C[C@H]3CCC[C@H](N3)[C@@H]2F)nn1 (single isomer, unassigned) [87-ENT1] | 101 to 500 nM | 20 | 2.75 ×10⁻⁶ cm/s | 55.8 ×10⁻⁶ cm/s | 92% | 100%
C[C@]12CC[C@](C)(N1)[C@H](F)[C@H](Oc1ccc(-c3ccc(C#N)cc3O)nn1)C2 (single isomer, unassigned) [152-ENT1] | 501 to 10000 nM | 5 | 11.6 ×10⁻⁶ cm/s | 59.4 ×10⁻⁶ cm/s | 88% | 98%
Cc1ccc(-c2ccc(-c3ccc(O[C@H]4C[C@@H]5CCC[C@@H](N5)[C@H]4F)nn3)c(O)c2)s1 (single isomer, unassigned) [100-ENT2] | 101 to 500 nM | 1 | 1.14 ×10⁻⁶ cm/s | 0.68 ×10⁻⁶ cm/s | 18% | 57%
Oc1cc2cccnc2cc1-c1ccc(O[C@H]2C[C@@H]3CCC[C@@H](N3)[C@H]2F)nn1 (single isomer, unassigned) [105-ENT2] | 101 to 500 nM | 6 | 6.58 ×10⁻⁶ cm/s | 37.2 ×10⁻⁶ cm/s | 91% | 70%
Oc1cc(-c2ccc3nncn3c2)ccc1-c1ccc(O[C@H]2C[C@@H]3CCC[C@@H](N3)[C@H]2F)nn1 (single isomer, unassigned) [73-ENT2] | 101 to 500 nM | 84 | 0.49 ×10⁻⁶ cm/s | 41.3 ×10⁻⁶ cm/s | 90% | 87%
C[C@@]12CCC[C@@](C)(N1)[C@@H](F)[C@@H](Oc1ccc(-c3ccc(C#N)cc3O)nn1)C2 (single isomer, unassigned) [145-ENT2] | 501 to 10000 nM | 8 | 7.75 ×10⁻⁶ cm/s | 58.9 ×10⁻⁶ cm/s | 89% | 100%
Oc1cc(-c2cnn3ccccc23)ccc1-c1ccc(O[C@H]2C[C@@H]3CCC[C@@H](N3)[C@H]2F)nn1 (single isomer, unassigned) [91-ENT2] | 501 to 10000 nM | 2 | 4.4 ×10⁻⁶ cm/s | 10.5 ×10⁻⁶ cm/s | 30% | 48%
